Source: patent publication US10519116B2, “Water-soluble pyrazole derivatives as corrosion inhibitors” (Ecolab USA Inc., priority 2015, dated 2019)
In brackets after ≈: the same amount, converted by molar mass.

Key:
[1] = Copper corrosion rate by linear polarization resistance measurements; details: copper coupons, 5 ppm inhibitor, pH 7.0, 45° C.; for No FRC Corrosion Rate: absence of bleach, average over 24 hour period; for 1 ppm FRC Corrosion Rate: bleach added to keep FRC at 1 ppm
Description: The corrosion rate of copper in the presence of (1H-pyrazol-1-yl)methanol, (3,5-dimethyl-1H-pyrazol-1-yl)methanol, (3,5-dimethyl-1H-pyrazol-1-yl)(phenyl)methanol, 1-(3,5-dimethyl-1H-pyrazol-1-yl)ethan-1-ol, 2-(1H-pyrazol-1-yl)ethan-1-ol, 3-phenyl-1H-pyrazole, 4-chloro-3,5-dimethyl-1H-pyrazole, and 3,5-dimethylpyrazole was determined using linear polarization resistance measurements. In addition, the corrosion rate of copper in the presence of pyrazole, 1-ethyl-1H-pyrazole, and tolyltriazole was determined using linear polarization resistance measurements. (1H-Pyrazol-1-yl)methanol, (3,5-dimethyl-1H-pyrazol-1-yl)methanol, (3,5-dimethyl-1H-pyrazol-1-yl)(phenyl)methanol, 4-chloro-3,5-dimethyl-1H-pyrazole, and 1-(3,5-dimethyl-1H-pyrazol-1-yl)ethan-1-ol were prepared by Applicants. Pyrazole, 3,5-dimethylpyrazole, 2-(1H-pyrazol-1-yl)ethan-1-ol, and 1-ethyl-1H-pyrazole were purchased from TCI America. 3-Phenyl-1H-pyrazole and tolyltriazole were purchased from Sigma-Aldrich (St. Louis, Mo.).
For each experiment, cylindrical copper coupons pre-polished using SIC 600 paper and fitted on a Pine rotator were immersed in a solution of corrosion inhibitor. The test solution comprised 470 ppm calcium, 230 ppm magnesium, 590 ppm chloride, 260 ppm sulfate, and 100 ppm alkalinity, as CaCO3. The pH of the test water was maintained at 7.0 using carbon dioxide, and the water temperature was maintained at 45° C. throughout the experiment.
The copper samples were immersed in 1 liter electrochemical cells comprising a 5 ppm inhibitor solution, and the Rp (polarization resistance) was recorded over a 24 hour period. The analysis was conducted using the following testing conditions: Initial E: −0.02V; Final E: +0.02V; Scan rate: 0.5 mV/s; Sample period: 1 second; Repeat time: 15 minutes; Sample area: 5 cm^2; Density: 8.92 g/cm^3; Copper Eq. Weight: 63.54 g; and Initial delay: 30 seconds.
Next, the copper samples were exposed to 1 ppm FRC by adding a few drops of 4% bleach solution to the electrolyte solution. After the FRC reached 1 ppm, the copper samples were analyzed. Throughout the analysis, the bleach solution was added intermittently to maintain the FRC at 1 ppm. The Rp in the absence and presence of bleach was collected and analyzed, and the average corrosion rate was calculated and recorded in Table 1. Corrosion rates were calculated in mils per year (mpy). FIGS. 1-3 display data plots for compounds 1, 3, 5, 6, and 9.

Oncorhynchus mykiss = test: in vivo; details: 96-hour definitive toxicity test
Description: (§1) The aquatic toxicity of (1H-pyrazol-1-yl)methanol toward a variety of species was analyzed. (1H-pyrazol-1-yl)methanol had lower aquatic toxicity than many commonly used corrosion inhibitors.

in vivo = details: in vivo; 96-hour definitive toxicity test
Description: as §1

[2] = Turbidity of 2% aqueous solutions at various pH levels (solubility); format: physicochemical; details: judged from turbidity at a wide range of pH levels
Description: Solutions comprising (1H-pyrazol-1-yl)methanol and 3,5-dimethylpyrazole at various pH levels were prepared by dissolving the corresponding pyrazole (2 grams) in deionized water (98 grams). The solutions were adjusted to the desired pH by adding dilute sulfuric acid or aqueous sodium hydroxide (1 N). The turbidity of each solution was measured using a HACH 2100Q Portable Turbidimeter.

[3] = tested on: Pseudokirchneriella subcapita; test: Chronic 72-Hour Green Algal Growth Test; format: in vivo; details: 72-hour chronic green algal growth test
Description: as §1

[4] = Ceriodaphnia dubia 48-Hour Definitive Toxicity Test; format: in vivo; details: Ceriodaphnia dubia, in vivo, other: aquatic exposure (compound in the test water)
Description: as §1

Ceriodaphnia dubia = test: as above; format: in vivo
Description: as §1

Compound	No FRC Corrosion Rate [1] [mpy]	1 ppm FRC Corrosion Rate [1] [mpy]	other results
Cc1cc(C)n(CO)n1 [Compound 5, (3,5-dimethyl-1H-pyrazol-1-yl)-methanol]	0.0197	0.0228	
Cc1n[nH]c(C)c1Cl [Compound 7, 4-chloro-3,5-dimethyl-1H-pyrazole]	0.0025	0.0212	
CCn1cccn1 [Compound 10, 1-ethyl-1H-pyrazole, reference compound]	0.0345	0.5932	
OCn1cccn1 [Compound 1, (1H-pyrazol-1-yl)methanol]	0.0057	0.0296	LC50 (Oncorhynchus mykiss): >100 mg/L; NOEC (survival) (Oncorhynchus mykiss): 50 mg/L; LC50 at 96 h (in vivo): > 100 µg/mL; water solubility [2]: water soluble; IC50 [3]: 3.83 µg/mL (≈ 39 µM); NOEC (survival) [3]: 2.5 mg/L; No FRC Corrosion Rate ([1]; listed as (1H-pyrazol-1-yl)methanol): 0.0057 mpy; LC50 at 48 h [4]: 31.5 µg/mL (≈ 321 µM); NOEC (survival) (Ceriodaphnia dubia): 13 mg/L
c1cn[nH]c1 [Compound 9, Pyrazole]	0.4232	0.1666	
OCCn1cccn1 [Compound 4, 2-(1H-pyrazol-1-yl)ethan-1-ol]	0.0212	0.2739	
Cc1cc(C)n(C(O)c2ccccc2)n1 (centres unmarked) [Compound 2, (3,5-dimethyl-1H-pyrazol-1-yl)(phenyl)methanol]	0.0043	0.0479	
Tolyltriazole [Compound 11, reference compound]	0.0214	0.0995	
c1ccc(-c2cc[nH]n2)cc1 [Compound 8, 3-phenyl-1H-pyrazole]	0.0039	0.0916	
Cc1cc(C)[nH]n1 [Compound 6, 3,5-dimethylpyrazole]	0.0396	0.0599	water solubility [2]: water soluble
Cc1cc(C)n(C(C)O)n1 (centres unmarked) [Compound 3, 1-(3,5-dimethyl-1H-pyrazol-1-yl)ethan-1-ol]	0.0036	0.0142	
